Patent US20250304571A1, “BIOLOGICALLY ACTIVE COMPOUNDS AND METHODS THEREOF” (Suzhou Keen Therapeutics Co., Ltd., priority 2022, published 2025)
Like-named read-outs stand apart in the source and are kept apart here.

Tests used:
[1] = tested on: 786-O (renal cell carcinoma) cells; assay: Cell viability (CellTiter Glo) assay, inhibition of 786-O cell proliferation; format: cell-based; settings: Homo sapiens, 786-0; 786-O cells, 72 hours, CellTiter Glo; read-out: IC50, inhibition of 786-O cell proliferation
[2] = tested on: HT-1080 (fibrosarcoma) cells; assay: Cell viability (CellTiter Glo) assay, inhibition of HT-1080 cell proliferation; format: cell-based; settings: Homo sapiens, HT-1080 cells, 72 hours
[3] = tested on: 786-O cells; assay: Anti-proliferation activity in 786-O cells in the presence of a ferroptosis inhibitor (Ferrostatin-1 or Liproxstatin-1); format: cell-based; settings: Homo sapiens
Experimental: In one assessment, cells (KP4, 786-0 and HT-1080) were seeded (700 cells/well, 1000 cells/well or 3000 cells/well) in 384-well or 96-well plates and incubated at 37° C./5% CO2 for 22-24 hours. A series of 8 different concentrations of compound stocks were created by 5-fold serial dilution in DMSO. These compounds were further diluted in culture media and were then added to cells (final concentrations: 100 μM, 20 μM, 4 μM, 0.8 μM, 0.16 μM, […].). After 72 hours of incubation, 30 μL of CellTiter Glo reagent (Promega) was added to each well and luminescence was measured after 10 minutes using SpectraMax M5/M5e (Molecular Devices). Luminescence from cells treated with DMSO alone was set as background and % of inhibition was calculated as follows: […]
Anti-proliferation activity of various compounds was also tested in the presence of an ferroptosis inhibitor, Ferrostatin-1 (2 μM) or Liproxstatin-1 (2 μM). Certain results are provided in Table 4 and Table 5 as examples. “A” indicates an IC50≤100 nM; “B” indicates an IC50 of >100 nM and ≤500 nM; “C” indicates an IC50>500 nM and ≤5 μM; and “D” indicates an IC50>5 μM.

[4] = Whole blood stability, human; format: in vitro ADME; settings: 37° C.; for % Remaining: 1 μM; for half-life at 1 μM: fresh whole blood
[5] = Whole blood stability, mouse; format: in vitro ADME; settings: 37° C.; for % Remaining: 1 μM; for half-life at 1 μM: male, Balb/c, fresh whole blood
Experimental: For example, in some embodiments, provided compounds have suitable stability profiles for various applications including therapeutic uses. Various technologies are available in the art for assessing properties, e.g., stability, of compounds and compositions, and can be utilized in accordance with the present disclosure. Certain useful technologies are described herein as examples. In some embodiments, stability was assessed in fresh blood samples, e.g., of human or mouse.
In some embodiments, fresh blood samples were collected from male Balb/c mouse with EDTA-K2 as anti-coagulant. Blood was collected before experiment and stored at 2˜8° C., and equilibrated to room temperature before use. Compounds were dissolved in DMSO at 10 mM concentration. Glibenclamide, used as an internal standard (1S), was prepared in DMSO at 1 mg/mL concentration. An aliquot of 594 μL of blank blood was spiked with 6 μL of working solution (100 μM) to achieve 1 μM of final concentration for test compounds. Solution samples were incubated for 0, 10, 30, 60, 90 and 120 minutes at 37° C., e.g., in a water bath.
An Agilent ZORBAX XDB-C18 (3.5 μm, 50×2.1 mm) was used for HPLC analysis. Mobile phases were 0.1% formic acid in water (mobile phase A), and 0.1% formic acid in acetonitrile (mobile phase B). The injection volume was 10 μL. Mass spectrometer was calibrated and tuned for each test compound. The % remaining of test compound in blood was calculated using the following equation: […]

[6] = tested on: KP4 (pancreatic ductal adenocarcinoma) cells; assay: Cell viability (CellTiter Glo) assay, inhibition of KP4 cell proliferation; format: cell-based; settings: Homo sapiens, KP-4; KP4 cells, 72 hours, CellTiter Glo; read-out: IC50, inhibition of KP4 cell proliferation

Row | IC50 [1] | IC50 [2] | IC50 ([3]; 786-0, 72 h, no ferroptosis inhibitor, read-out: IC50, No Ferroptosis Inhibitor (Table 5)) | % Remaining ([4]; @ 240 min) | half-life at 1 μM [4] | % Remaining ([5]; @ 240 min) | half-life at 1 μM [5] | IC50 [6] | % Remaining ([4]; @ 120 min) | % Remaining ([5]; @ 120 min) | IC50 ([3]; 786-0, Ferrostatin-1 (2 μM), read-out: IC50, With Ferrostatin-1) | IC50 ([3]; 786-0, no ferroptosis inhibitor, read-out: IC50, No Ferroptosis Inhibitor (Table 4)) | Structure (SMILES)
1 | < 100 nM | < 100 nM | < 100 nM | 69.7% @ 240 min | 7.85 h | 63.9% @ 240 min | 6.47 h | – | – | – | – | – | CC1(C)CN(c2ccc(Oc3ccccc3)cc2)c2nc(COC(=N)N3CCC(F)(F)CC3)nc(N)c21 [Compound E2]
2 | 100 to 500 nM | < 100 nM | – | – | 6.07 h | – | 5.65 h | < 100 nM | 84% @ 120 min | 78% @ 120 min | – | – | N=C(OCc1nc(N)nc(Nc2ccc(Oc3ccccc3)cc2)n1)N1CCOCC1 [Compound F6]
3 | < 100 nM | < 100 nM | – | 57.6% @ 240 min | 5.35 h | 74% @ 240 min | 7.95 h | < 100 nM | – | – | > 5000 nM | < 100 nM | N=C(OCc1nc(N)nc(Nc2ccc(Oc3ccccc3)cc2)n1)N1CCC(F)(F)CC1 [Compound F13]
